Calls of active or inactive are those of the source. The rule behind the calls is not given here.
Legend:
CYP2D6 = CYP2D6 (Homo sapiens, UniProt P10635); test: […] recombinant human CYP2D6 mediated drug metabolism in human liver microsomes assessed as intrinsic clearance at 1 uM incubated for 45 mins in presence of NADPH regenerating system by LC-MS/MS analysis; assay type: ADME, Microsome; settings: recombinant human CYP2D6, read-out: CLH
[1] = Protein binding in dog plasma assessed as fraction unbound at 1 uM incubated for 6 hrs by rapid equilibrium dialysis based LC-MS/MS analysis; assay type: ADME, cell-free, Canis lupus familiaris
[2] = Metabolic stability in rat hepatocytes assessed as intrinsic clearance per 10^6 cells at 1 uM by LC-MS/MS analysis; assay type: ADME, cell-based, Hepatocyte
[3] = target: C-X-C chemokine receptor type 3 (Canis lupus familiaris, UniProt Q5KSK8); test: Antagonist activity at dog CXCR3 expressed in CHO-K1 cells assessed as reduction in CXCL11 induced calcium flux by FLIPR method; assay type: cell-based
[4] = target: T1, C-X-C chemokine receptor type 3 (Homo sapiens) (UniProt P49682); test: Binding affinity to human CXCR3 expressed in CHO-K1 cell membrane assessed as dissociation rate constant (koff) using tritium-labeled ligand by […] assay; assay type: cell membranes; settings: filed as antagonist
T1 sequence (whole entry): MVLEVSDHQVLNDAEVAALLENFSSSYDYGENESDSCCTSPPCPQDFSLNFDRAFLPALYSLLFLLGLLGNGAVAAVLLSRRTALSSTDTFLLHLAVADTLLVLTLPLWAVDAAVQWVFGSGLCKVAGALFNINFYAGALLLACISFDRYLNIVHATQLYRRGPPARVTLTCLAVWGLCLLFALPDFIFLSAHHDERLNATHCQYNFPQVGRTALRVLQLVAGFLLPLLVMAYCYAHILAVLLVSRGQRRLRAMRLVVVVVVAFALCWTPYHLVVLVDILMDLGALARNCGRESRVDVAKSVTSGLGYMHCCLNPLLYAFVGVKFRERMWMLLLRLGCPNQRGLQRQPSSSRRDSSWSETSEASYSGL

[5] = target: C-X-C chemokine receptor type 4 (Homo sapiens) (UniProt P61073); test: Binding affinity to CXCR4 (unknown origin) at 10 uM by radioligand binding assay
[6] = target: N-formyl peptide receptor 2 (Homo sapiens) (UniProt P25090); test: Binding affinity to FPR2 (unknown origin) at 10 uM by radioligand binding assay
[7] = target: T2, C-X-C chemokine receptor type 3 (Mus musculus) (UniProt O88410); test: In vivo antagonist activity at CXCR3 in LPS-induced DBA/1 mouse model assessed as reduction in mouse CXCL10-mediated chemotaxis in CD8+ T cells at 0.006 microg/g, po bid preincubated for 3 days followed by LPS stimulation for 30 mins and measured after 3 days by flow cytometry; assay type: functional, organism-based; set-up: scale not given: the % may be the effect or the level left; settings: T-cell, dose 0.006 µg/g, time 6.0 day
T2 sequence (whole entry): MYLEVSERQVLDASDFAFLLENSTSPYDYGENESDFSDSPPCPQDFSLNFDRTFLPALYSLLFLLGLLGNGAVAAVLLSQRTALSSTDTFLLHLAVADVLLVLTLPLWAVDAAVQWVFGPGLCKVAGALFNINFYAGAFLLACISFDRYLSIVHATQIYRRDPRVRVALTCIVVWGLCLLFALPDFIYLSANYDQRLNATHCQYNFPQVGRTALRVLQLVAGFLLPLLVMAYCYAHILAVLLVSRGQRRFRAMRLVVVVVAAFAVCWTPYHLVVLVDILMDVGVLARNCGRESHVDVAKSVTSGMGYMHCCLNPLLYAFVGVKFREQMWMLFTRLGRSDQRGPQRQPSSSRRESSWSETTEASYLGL

[8] = target: T2, C-X-C chemokine receptor type 3 (Mus musculus); test: In vivo antagonist activity at CXCR3 in LPS-induced DBA/1 mouse model assessed as reduction in mouse CXCL10-mediated chemotaxis in CD8+ T cells at 0.02 microg/g, po bid preincubated for 3 days followed by LPS stimulation for 30 mins and measured after 3 days by flow cytometry; assay type: functional, organism-based; set-up: scale not given: the % may be the effect or the level left; settings: T-cell, dose 0.02 µg/g, time 6.0 day
[9] = Dissociation constant, pKa of compound; assay type: physicochemical
Cytochrome P450 2C9 = Cytochrome P450 2C9 (Homo sapiens, UniProt P11712); test: Time dependent inhibition of CYP2C9 (unknown origin); assay type: ADME
Cytochrome P450 2D6 = Cytochrome P450 2D6 (Homo sapiens, UniProt P10635); test: Time dependent inhibition of CYP2D6 (unknown origin); assay type: ADME
[10] = Glutathione reactivity assessed as GSH-adduct formation by dansyl-glutathione trapping assay; assay type: physicochemical
[11] = Metabolic stability in dog liver microsomes assessed as M3 metabolite formation at 1 uM and measured upto 15 mins in presence of NADPH regenerating system by LC-MS/MS analysis; assay type: ADME, Canis lupus familiaris, Microsome; settings: 0.25 h
[12] = Metabolic stability in human hepatocyte assessed as M4 metabolite formation at 1 uM and measured upto 15 mins in presence of NADPH regenerating system by LC-MS/MS analysis; assay type: ADME, cell-based; settings: hepatocytes, 0.25 h
[13] = Metabolic stability in rat hepatocyte assessed as M1 metabolite formation at 1 uM and measured upto 15 mins in presence of NADPH regenerating system by LC-MS/MS analysis; assay type: ADME, cell-based; settings: hepatocytes, 0.25 h
[14] = Protein binding in human plasma assessed as fraction unbound at 20 ug/ml using 14C-labeled ligand by rapid equilibrium dialysis; assay type: ADME, cell-free; settings: at 20 µg/mL
[15] = Protein binding in mouse plasma assessed as fraction unbound at 20 ug/ml using 14C-labeled ligand by rapid equilibrium dialysis; assay type: ADME, cell-free; settings: at 20 µg/mL
[16] = Protein binding in rabbit plasma assessed as fraction unbound at 0.1 to 300 ug/ml using 14C-labeled ligand by rapid equilibrium dialysis; assay type: ADME, cell-free, Oryctolagus cuniculus; settings: at 0.1 to 300 µg/mL, dose 0.1-300 µg/ml
[17] = Volume of distribution at steady state in Wistar rat at 3 mg/kg,iv or 3 mg/kg, po; assay type: ADME, organism-based; settings: in vivo, read-out: Vdss
[18] = Tmax in Beagle dog at 2.5 mg/kg,iv or 2.5 mg/kg, po; assay type: ADME, organism-based, Canis lupus familiaris; settings: in vivo
[19] = Cmax in Beagle dog at 2.5 mg/kg,iv or 2.5 mg/kg, po; assay type: ADME, organism-based, Canis lupus familiaris; set-up: dose 2.5 mg/kg, route iv; settings: in vivo
[20] = Volume of distribution at steady state in Beagle dog at 2.5 mg/kg,iv or 2.5 mg/kg, po; assay type: ADME, organism-based, Canis lupus familiaris; settings: in vivo, read-out: Vdss
[21] = Tmax in Cynomolgus monkey at 1.0 mg/kg,iv or 1.25 mg/kg, po; assay type: ADME, organism-based, Macaca fascicularis; settings: in vivo
[22] = Oral bioavailability in Cynomolgus monkey at 1.25 mg/kg; assay type: ADME, organism-based, Macaca fascicularis; settings: in vivo
[23] = Volume of distribution at steady state in Cynomolgus monkey at 1.0 mg/kg,iv or 1.25 mg/kg, po; assay type: ADME, organism-based, Macaca fascicularis; settings: in vivo, read-out: Vdss
[24] = Cardiotoxicity in human iPSC-derived cardiomyocytes assessed as slowing of spontaneous beating rate at 4.1 ug/ml; assay type: toxicity, cell-based; settings: cardiac muscle cell, dose 4.1 µg/ml
[25] = In vivo inhibition of hERG in po dosed dog assessed as increase in QTc interval; assay type: toxicity, organism-based, Canis lupus familiaris
[26] = In vivo inhibition of hERG in dog assessed as increase in QTc interval at 24 ug/ml, iv; assay type: toxicity, organism-based, Canis lupus familiaris; settings: at 24 µg/mL
[27] = In vivo inhibition of hERG in iv dosed dog assessed as change in QRS interval; assay type: toxicity, organism-based, Canis lupus familiaris
[28] = Genotoxicity in Salmonella typhimurium TA98 at 5000 ug in presence of S9 fraction; assay type: toxicity, subcellular, Salmonella enterica subsp. enterica serovar Typhimurium; settings: dose 5000 µg

Sequence of CYP2D6 (P10635 whole entry): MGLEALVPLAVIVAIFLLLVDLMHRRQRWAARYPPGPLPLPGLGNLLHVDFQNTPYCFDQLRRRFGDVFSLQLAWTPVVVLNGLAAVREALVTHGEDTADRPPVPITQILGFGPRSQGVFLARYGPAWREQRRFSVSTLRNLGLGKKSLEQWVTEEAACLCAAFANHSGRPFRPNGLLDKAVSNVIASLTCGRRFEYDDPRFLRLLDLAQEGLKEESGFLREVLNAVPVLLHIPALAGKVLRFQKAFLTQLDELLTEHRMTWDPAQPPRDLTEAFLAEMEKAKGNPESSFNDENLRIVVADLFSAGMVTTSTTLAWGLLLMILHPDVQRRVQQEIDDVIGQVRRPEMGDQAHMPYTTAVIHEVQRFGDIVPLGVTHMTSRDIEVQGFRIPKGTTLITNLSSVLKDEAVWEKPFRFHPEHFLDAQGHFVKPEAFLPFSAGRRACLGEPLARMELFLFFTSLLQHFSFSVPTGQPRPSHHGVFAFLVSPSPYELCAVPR
Sequence of Cytochrome P450 2D6 (P10635 whole entry): as above
Sequence of N-formyl peptide receptor 2 (Homo sapiens) (P25090 whole entry): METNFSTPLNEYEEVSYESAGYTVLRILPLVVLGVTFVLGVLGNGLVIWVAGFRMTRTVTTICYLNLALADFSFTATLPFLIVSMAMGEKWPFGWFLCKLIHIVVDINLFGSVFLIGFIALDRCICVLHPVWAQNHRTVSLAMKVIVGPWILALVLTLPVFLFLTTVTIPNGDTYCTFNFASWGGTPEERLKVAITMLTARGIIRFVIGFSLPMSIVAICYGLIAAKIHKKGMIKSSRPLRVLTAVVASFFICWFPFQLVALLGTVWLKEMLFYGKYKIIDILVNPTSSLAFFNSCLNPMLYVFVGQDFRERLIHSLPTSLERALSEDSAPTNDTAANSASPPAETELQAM
Sequence of Cytochrome P450 2C9 (P11712 whole entry): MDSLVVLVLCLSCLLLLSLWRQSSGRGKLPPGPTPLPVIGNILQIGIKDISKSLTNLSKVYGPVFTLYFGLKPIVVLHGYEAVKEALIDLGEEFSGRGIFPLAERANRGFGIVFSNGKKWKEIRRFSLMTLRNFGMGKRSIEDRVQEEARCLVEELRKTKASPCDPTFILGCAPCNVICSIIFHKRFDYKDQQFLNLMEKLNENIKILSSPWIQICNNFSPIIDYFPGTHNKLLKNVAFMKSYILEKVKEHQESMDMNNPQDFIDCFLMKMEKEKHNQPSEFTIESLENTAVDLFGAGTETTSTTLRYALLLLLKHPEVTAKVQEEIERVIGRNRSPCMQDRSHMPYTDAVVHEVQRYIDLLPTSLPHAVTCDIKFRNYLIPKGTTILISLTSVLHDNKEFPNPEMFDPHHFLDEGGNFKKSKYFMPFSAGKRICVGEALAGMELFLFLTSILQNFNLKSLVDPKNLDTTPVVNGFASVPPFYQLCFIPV
Sequence of C-X-C chemokine receptor type 4 (Homo sapiens) (P61073 whole entry): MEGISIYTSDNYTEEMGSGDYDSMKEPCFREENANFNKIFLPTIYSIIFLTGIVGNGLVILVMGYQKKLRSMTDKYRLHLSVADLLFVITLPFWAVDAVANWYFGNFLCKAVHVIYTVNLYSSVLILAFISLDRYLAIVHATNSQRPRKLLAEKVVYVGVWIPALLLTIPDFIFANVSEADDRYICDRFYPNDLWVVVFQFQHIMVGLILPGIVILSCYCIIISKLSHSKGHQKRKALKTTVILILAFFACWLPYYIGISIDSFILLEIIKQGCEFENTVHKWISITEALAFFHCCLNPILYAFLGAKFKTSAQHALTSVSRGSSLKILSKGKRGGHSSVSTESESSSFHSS
Sequence of C-X-C chemokine receptor type 3 (Q5KSK8 whole entry): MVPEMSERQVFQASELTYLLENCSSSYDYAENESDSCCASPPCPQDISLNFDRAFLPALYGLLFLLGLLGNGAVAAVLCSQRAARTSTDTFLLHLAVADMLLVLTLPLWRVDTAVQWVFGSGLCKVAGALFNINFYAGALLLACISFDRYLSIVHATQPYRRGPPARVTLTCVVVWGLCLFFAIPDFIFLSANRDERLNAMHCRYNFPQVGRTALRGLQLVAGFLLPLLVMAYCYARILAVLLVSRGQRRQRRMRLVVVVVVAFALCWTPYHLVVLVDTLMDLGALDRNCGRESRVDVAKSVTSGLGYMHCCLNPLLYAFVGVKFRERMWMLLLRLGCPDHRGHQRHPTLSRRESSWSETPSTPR

Cc1ncn(CC(=O)N2CCN(c3sc(C(F)(F)F)nc3-c3cnc(C(F)(F)F)nc3)C[C@H]2CCO)n1
microsomal CLint at 1 µM (CYP2D6): < 0.04 µL/min/mg
fraction unbound at 6 h, 1 µM [1]: 0.34
CLH [2]: < 2 µL/min/mg
IC50 [3]: 0.004 µM
Kdiss [4]: 0.03 s⁻¹
Activity [5]: inactive
Activity [6]: inactive
Activity [7]: 35%
Activity [8]: 45%
pKa [9]: 2.2
IC50 (Cytochrome P450 2C9): > 50 µM
IC50 (Cytochrome P450 2D6): > 50 µM
Activity [10]: Not Active
Stability [11]: Unstable
Stability [12]: Unstable
Stability [13]: Unstable
fraction unbound at 20 ug/ml [14]: 0.4
fraction unbound at 20 ug/ml [15]: 0.1
fraction unbound [16]: 0.1
Vd [17]: 2.7 L/kg
Tmax [18]: 24 min
Cmax [19]: 0.91 µg/mL
Vd [20]: 1.5 L/kg
Tmax [21]: 90 min
bioavailability [22]: 92%
Vd [23]: 1.3 L/kg
Activity [24]: Toxic
inhibition (INH) [25]: Toxic
inhibition (INH) [26]: Toxic
inhibition (INH) [27]: Non-Toxic
Activity [28]: Non-Toxic

From ChEMBL document CHEMBL5247653, “Discovery of Clinical Candidate ACT-777991, a Potent CXCR3 Antagonist for Antigen-Driven and Inflammatory Pathologies” (J Med Chem, 2023)
